The values below come from ChEMBL document CHEMBL5126624, “Targeted Isolation of Anti-inflammatory Lignans from Justicia aequilabris by Molecular Networking Approach” (J Nat Prod, 2022).

Series [1] deals with RAW264.7. As to the kind of experiment: Antiinflammatory activity in mouse RAW264.7 cells assessed as decrease in IFN-gamma and LPS-induced IL-1beta production at 50 uM after 24 hrs by ELISA. The class given is functional. In general terms: In an ELISA, binding on a coated surface is turned into a signal by an enzyme label.
The test system of series [2] is RAW264.7. Nature of the series: Antiinflammatory activity in mouse RAW264.7 cells assessed as decrease in IFN-gamma and LPS-induced IL-1beta production by measuring IL-1beta level at 12.5 uM after 24 hrs by ELISA (reference value: 73.3 +/- 1.8 pg/mg). The class given is functional.
Series [3] concerns RAW264.7. Nature of the series: Antiinflammatory activity in mouse RAW264.7 cells assessed as decrease in IFN-gamma and LPS-induced IL-1beta production by measuring IL-1beta level at 25 uM after 24 hrs by ELISA (reference value: 73.3 +/- 1.8 pg/mg). The class given is functional.
The nature of series [4]: Cytotoxicity in LPS-stimulated mouse RAW264.7 cells assessed as reduction in cell viability incubated for […] by alamar blue dye based colorimetric assay. The conditions noted are these: LPS-stimulated RAW264.7 cells. The class given is toxicity. Background: The colour change of resazurin is a common sign of viable cells or microbes.
The subject of series [5] is RAW264.7. Nature of the series: Antiinflammatory activity in mouse RAW264.7 cells assessed as decrease in IFN-gamma and LPS-induced IL-1beta production by measuring IL-1beta level at 6.3 uM after 24 hrs by ELISA (reference value: 73.3 +/- 1.8 pg/mg). The class given is functional.
For series [6], the system named is RAW264.7. Nature of the series: Antiinflammatory activity in mouse RAW264.7 cells assessed as decrease in IFN-gamma and LPS-induced IL-1beta production by measuring IL-1beta level at 50 uM after 24 hrs by ELISA (reference value: 73.3 +/- 1.8 pg/mg). It counts as functional.
Series [7] relates to RAW264.7. As to the kind of experiment: Antiinflammatory activity in mouse RAW264.7 cells assessed as decrease in IFN-gamma and LPS-induced nitric oxide production after 24 hrs by ELISA. The class given is functional, cell-based. The conditions noted are these: RAW264.7, 24 h.
The subject of series [8] is RAW264.7. As to the kind of experiment: Antiinflammatory activity in mouse RAW264.7 cells assessed as decrease in IFN-gamma and LPS-induced IL-1beta production by measuring IL-1beta level at 10 uM after 24 hrs by ELISA (reference value: 73.3 +/- 1.8 pg/mg). It counts as functional.
The subject of series [9] is RAW264.7. Nature of the series: Antiinflammatory activity in mouse RAW264.7 cells assessed as decrease in IFN-gamma and LPS-induced IL-1beta production by measuring IL-1beta level at 2.1 uM after 24 hrs by ELISA (reference value: 73.3 +/- 1.8 pg/mg). It counts as functional.
Series [10] deals with RAW264.7. Nature of the series: Antiinflammatory activity in mouse RAW264.7 cells assessed as decrease in IFN-gamma and LPS-induced IL-1beta production at 6.7 uM after 24 hrs by ELISA. It counts as functional.
In series [11] the test system is RAW264.7. As to the kind of experiment: Antiinflammatory activity in mouse RAW264.7 cells assessed as decrease in IFN-gamma and LPS-induced IL-1beta production by measuring IL-1beta level at 16.7 uM after 24 hrs by ELISA (reference value: 73.3 +/- 1.8 pg/mg). It counts as functional.
Series [12] has as its system RAW264.7. Nature of the series: Antiinflammatory activity in mouse RAW264.7 cells assessed as decrease in IFN-gamma and LPS-induced IL-1beta production by measuring IL-1beta level at 8.4 uM after 24 hrs by ELISA (reference value: 73.3 +/- 1.8 pg/mg). It counts as functional.
Series [13] concerns RAW264.7. As to the kind of experiment: Antiinflammatory activity in mouse RAW264.7 cells assessed as decrease in IFN-gamma and LPS-induced IL-1beta production by measuring IL-1beta level at 4.2 uM after 24 hrs by ELISA (reference value: 73.3 +/- 1.8 pg/mg). It counts as functional.
Series [14] deals with RAW264.7. Nature of the series: Antiinflammatory activity in mouse RAW264.7 cells assessed as maximum decrease in IFN-gamma and LPS-induced IL-1beta production after 24 hrs by ELISA. It counts as functional.
For series [15], the system named is RAW264.7. As to the kind of experiment: Antiinflammatory activity in mouse RAW264.7 cells assessed as decrease in IFN-gamma and LPS-induced IL-1beta production by measuring IL-1beta level at 3.1 uM after 24 hrs by ELISA (reference value: 73.3 +/- 1.8 pg/mg). The class given is functional.
Series [16] has as its system RAW264.7. Nature of the series: Antiinflammatory activity in mouse RAW264.7 cells assessed as decrease in IFN-gamma and LPS-induced IL-1beta production at 25 uM after 24 hrs by ELISA. The class given is functional.

As for `COc1cc(C[C@H]2COC(=O)[C@@H](C(=O)O)[C@@H](C)[C@@H](C(=O)O)C(=O)OC[C@@H]2Cc2ccc(O)c(OC)c2)ccc1O`, the Imax with RAW264.7 [1] is 23.5%. Besides, the Activity in the series on RAW264.7 [2] came to 71.3 pg/mg; in the series with RAW264.7 [3], 70.2 pg/mg; in the series on RAW264.7 [5], 73.3 pg/mg; in the series with RAW264.7 [6], 56 pg/mg. Further, in series [4], the CC50 (in general, the concentration that lowers cell viability or growth by half) at 24 h was found to be 23.4 µM. The IC50 (as a rule, the concentration that gives 50% inhibition) in the series on RAW264.7 [7] is > 200 µM.

Consider `C[C@@H]1C[C@H]2[C@@H]3CCC4=CC(=O)C=C[C@]4(C)[C@@]3(F)[C@@H](O)C[C@]2(C)[C@@]1(O)C(=O)CO` [DEXAMETHASONE], for which, in the series with RAW264.7 [8], the Imax is 47.9%. The CC50 at 24 h in series [4] turned out to be 4.4 µM.

Take `C/C=C/C(=O)OC[C@H](Cc1ccc(O)c(OC)c1)[C@H](CO)Cc1ccc(O)c(OC)c1`: the CC50 at 24 h in series [4] worked out at 7.3 µM. Besides, the Activity is 74.1 pg/mg with RAW264.7 [9], 49.4 pg/mg in the series on RAW264.7 [11], 65.7 pg/mg in the series on RAW264.7 [12] and 69.8 pg/mg with RAW264.7 [13]. The Imax in the series on RAW264.7 [10] is listed as 32.5%. The IC50 in the series with RAW264.7 [7] came out at 92 µM.

On to `COc1cc(C[C@@H](CO)[C@H](CO)Cc2ccc(O)c(OC)c2)ccc1O` [(+)-SECOISOLARICIRESINOL], for which the Imax in the series on RAW264.7 [14] came out at 0%. Besides, the Activity is 74.9 pg/mg in the series on RAW264.7 [9], 73 pg/mg with RAW264.7 [11], 72.8 pg/mg in the series with RAW264.7 [12] and 73 pg/mg in the series on RAW264.7 [13]. For the same molecule, in the series on RAW264.7 [7], the IC50 was found to be 132 µM.

With `COc1cc(C[C@@H](CO)[C@H](COC(=O)CC(=O)O)Cc2ccc(O)c(OC)c2)ccc1O`, the Activity is reported as 73.1 pg/mg with RAW264.7 [15], 66 pg/mg in the series with RAW264.7 [2], 53.3 pg/mg in the series on RAW264.7 [3] and 71.1 pg/mg with RAW264.7 [5]. Further, the CC50 at 24 h in series [4] worked out at 9.1 µM. Also, the Imax in the series with RAW264.7 [16] turned out to be 27.3%. For the same molecule, in the series with RAW264.7 [7], the IC50 is 173 µM.

With `CN(C)c1ccc(C(=C2C=CC(=[N+](C)C)C=C2)c2ccc(N(C)C)cc2)cc1` [GENTIAN VIOLET], the IC50 in the series with RAW264.7 [7] came out at 1.1 µM.
